Experimental data: PubChem BioAssay (NCI)
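The concentration for 50% growth inhibition is given as GI50. At the TGI there is no net growth.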

Legend:
Assay in all cases: NCI tumour cell line growth inhibition, 384-well format
PC-3 prostate = system: PC-3 prostate
HS 578T breast = system: HS 578T breast
MDA-MB-231 breast = system: MDA-MB-231 breast
UO-31 renal = system: UO-31 renal
MOLT-4 leukemia = system: MOLT-4 leukemia
SK-MEL-5 melanoma = system: SK-MEL-5 melanoma
CCRF-CEM leukemia = system: CCRF-CEM leukemia
KM12 colon = system: KM12 colon
UACC-257 melanoma = system: UACC-257 melanoma
SK-OV-3 ovarian = system: SK-OV-3 ovarian
ACHN renal = system: ACHN renal
EKVX NSCLC = system: EKVX NSCLC
NCI-H23 lung = system: NCI-H23 lung
IGROV1 ovarian = system: IGROV1 ovarian
RXF 393 renal = system: RXF 393 renal
HCC-2998 colon = system: HCC-2998 colon
NCI-H226 lung = system: NCI-H226 lung
OVCAR-5 ovarian = system: OVCAR-5 ovarian
HOP-92 NSCLC = system: HOP-92 NSCLC
BT-549 breast = system: BT-549 breast
DU-145 prostate = system: DU-145 prostate
NCI-H460 NSCLC = system: NCI-H460 NSCLC
SF-539 CNS = system: SF-539 CNS
MALME-3M melanoma = system: MALME-3M melanoma
786-0 renal = system: 786-0 renal
HOP-62 NSCLC = system: HOP-62 NSCLC
NCI/ADR-RES ovarian = system: NCI/ADR-RES ovarian
HL-60(TB) leukemia = system: HL-60(TB) leukemia
M14 melanoma = system: M14 melanoma
SN12C renal = system: SN12C renal
LOX IMVI melanoma = system: LOX IMVI melanoma
MDA-MB-435 melanoma = system: MDA-MB-435 melanoma
NCI-H322M lung = system: NCI-H322M lung
OVCAR-3 ovarian = system: OVCAR-3 ovarian
OVCAR-8 ovarian = system: OVCAR-8 ovarian
K-562 leukemia = system: K-562 leukemia
A498 renal = system: A498 renal
SNB-75 CNS = system: SNB-75 CNS
HCT-15 colon = system: HCT-15 colon
COLO 205 colon = system: COLO 205 colon
SNB-19 CNS = system: SNB-19 CNS
HCT-116 colon = system: HCT-116 colon
SF-295 CNS = system: SF-295 CNS
HT29 colon = system: HT29 colon
SK-MEL-28 melanoma = system: SK-MEL-28 melanoma
SF-268 CNS = system: SF-268 CNS
TK-10 renal = system: TK-10 renal
A549 NSCLC = system: A549 NSCLC
MCF7 breast = system: MCF7 breast
OVCAR-4 ovarian = system: OVCAR-4 ovarian
CAKI-1 renal = system: CAKI-1 renal
MDA-MB-468 breast = system: MDA-MB-468 breast

With Cn1cc(C2=C(c3cn(C4CCN(Cc5ccccn5)CC4)c4ccccc34)C(=O)NC2=O)c2ccccc21 as the compound, how does the GI50 (PC-3 prostate) read?
Its GI50 is 2.98 µM.

And the TGI (PC-3 prostate)?
The TGI was over 100 µM.

And the GI50 (HS 578T breast)?
Its GI50 is 2.22 µM.

What about the TGI (HS 578T breast) of the same compound?
Its TGI is 5.08 µM.

And the GI50 (MDA-MB-231 breast)?
Its GI50 is 4.21 µM.

And the TGI (MDA-MB-231 breast)?
The TGI was over 100 µM.

And the GI50 (UO-31 renal)?
Its GI50 is 1.11 µM.

What about the TGI (UO-31 renal) of the same compound?
Its TGI is over 100 µM.

What about the GI50 (MOLT-4 leukemia) of the same compound?
Its GI50 is 1.9 µM.

And the TGI (MOLT-4 leukemia)?
The TGI was 3.35 µM.

What about the GI50 (SK-MEL-5 melanoma) of the same compound?
The GI50 was 0.372 µM.

What about the TGI (SK-MEL-5 melanoma) of the same compound?
Its TGI is 95.5 µM.

And the GI50 (CCRF-CEM leukemia)?
The GI50 was 0.403 µM.

What about the TGI (CCRF-CEM leukemia) of the same compound?
The TGI was 1.24 µM.

And the GI50 (KM12 colon)?
Its GI50 is 3.93 µM.

What about the TGI (KM12 colon) of the same compound?
Its TGI is over 100 µM.

And the GI50 (UACC-257 melanoma)?
The GI50 was over 100 µM.

And the TGI (UACC-257 melanoma)?
The TGI was over 100 µM.

What about the GI50 (SK-OV-3 ovarian) of the same compound?
Its GI50 is 2.52 µM.

What about the TGI (SK-OV-3 ovarian) of the same compound?
Its TGI is over 100 µM.

What about the GI50 (ACHN renal) of the same compound?
Its GI50 is 8.73 µM.

What about the TGI (ACHN renal) of the same compound?
The TGI was over 100 µM.

And the GI50 (EKVX NSCLC)?
The GI50 was 0.917 µM.

And the TGI (EKVX NSCLC)?
Its TGI is over 100 µM.

What about the GI50 (NCI-H23 lung) of the same compound?
The GI50 was 5.28 µM.

What about the TGI (NCI-H23 lung) of the same compound?
Its TGI is over 100 µM.

What about the GI50 (IGROV1 ovarian) of the same compound?
Its GI50 is 3.57 µM.

What about the TGI (IGROV1 ovarian) of the same compound?
Its TGI is over 100 µM.

And the GI50 (RXF 393 renal)?
The GI50 was 2.06 µM.

And the TGI (RXF 393 renal)?
Its TGI is 4.85 µM.

What about the GI50 (HCC-2998 colon) of the same compound?
The GI50 was 1.5 µM.

What about the TGI (HCC-2998 colon) of the same compound?
The TGI was 12.4 µM.

And the GI50 (NCI-H226 lung)?
The GI50 was 3.31 µM.

And the TGI (NCI-H226 lung)?
Its TGI is over 100 µM.

What about the GI50 (OVCAR-5 ovarian) of the same compound?
Its GI50 is over 100 µM.

And the TGI (OVCAR-5 ovarian)?
The TGI was over 100 µM.

And the GI50 (HOP-92 NSCLC)?
Its GI50 is 4.24 µM.

And the TGI (HOP-92 NSCLC)?
Its TGI is over 100 µM.

What about the GI50 (BT-549 breast) of the same compound?
Its GI50 is 1.6 µM.

What about the TGI (BT-549 breast) of the same compound?
The TGI was over 100 µM.

And the GI50 (DU-145 prostate)?
Its GI50 is 2.65 µM.

And the TGI (DU-145 prostate)?
The TGI was over 100 µM.

And the GI50 (NCI-H460 NSCLC)?
The GI50 was 0.344 µM.

And the TGI (NCI-H460 NSCLC)?
Its TGI is 84 µM.

What about the GI50 (SF-539 CNS) of the same compound?
Its GI50 is 1.2 µM.

And the TGI (SF-539 CNS)?
The TGI was over 100 µM.

And the GI50 (MALME-3M melanoma)?
Its GI50 is 2.84 µM.

What about the TGI (MALME-3M melanoma) of the same compound?
The TGI was 7.71 µM.

What about the GI50 ([…]-0 renal) of the same compound?
The GI50 was 3.31 µM.

And the TGI (786-0 renal)?
Its TGI is over 100 µM.

What about the GI50 (HOP-62 NSCLC) of the same compound?
Its GI50 is 3.22 µM.

And the TGI (HOP-62 NSCLC)?
Its TGI is over 100 µM.

And the GI50 (NCI/ADR-RES ovarian)?
The GI50 was 3.33 µM.

What about the TGI (NCI/ADR-RES ovarian) of the same compound?
The TGI was over 100 µM.

And the GI50 (HL-60(TB) leukemia)?
Its GI50 is 0.713 µM.

What about the TGI (HL-60(TB) leukemia) of the same compound?
The TGI was 2.54 µM.

And the GI50 (M14 melanoma)?
The GI50 was 2.94 µM.

And the TGI (M14 melanoma)?
The TGI was 9.21 µM.

And the GI50 (SN12C renal)?
The GI50 was 1.26 µM.

What about the TGI (SN12C renal) of the same compound?
The TGI was over 100 µM.

What about the GI50 (LOX IMVI melanoma) of the same compound?
The GI50 was 3.1 µM.

And the TGI (LOX IMVI melanoma)?
Its TGI is over 100 µM.

And the GI50 (MDA-MB-435 melanoma)?
Its GI50 is 0.421 µM.

What about the TGI (MDA-MB-435 melanoma) of the same compound?
Its TGI is 39.4 µM.

And the GI50 (NCI-H322M lung)?
The GI50 was 5.75 µM.

What about the TGI (NCI-H322M lung) of the same compound?
The TGI was over 100 µM.

What about the GI50 (OVCAR-3 ovarian) of the same compound?
The GI50 was 0.5 µM.

And the TGI (OVCAR-3 ovarian)?
The TGI was 3.36 µM.

And the GI50 (OVCAR-8 ovarian)?
The GI50 was 6.7 µM.

And the TGI (OVCAR-8 ovarian)?
Its TGI is over 100 µM.

And the GI50 (K-562 leukemia)?
The GI50 was 0.454 µM.

And the TGI (K-562 leukemia)?
The TGI was 1.58 µM.

And the GI50 (A498 renal)?
Its GI50 is 0.718 µM.

And the TGI (A498 renal)?
Its TGI is 7.71 µM.

And the GI50 (SNB-75 CNS)?
Its GI50 is 1.41 µM.

And the TGI (SNB-75 CNS)?
The TGI was 7.12 µM.

And the GI50 (HCT-15 colon)?
The GI50 was 0.623 µM.

What about the TGI (HCT-15 colon) of the same compound?
The TGI was over 100 µM.

What about the GI50 (COLO 205 colon) of the same compound?
Its GI50 is 4.14 µM.

And the TGI (COLO 205 colon)?
The TGI was over 100 µM.

What about the GI50 (SNB-19 CNS) of the same compound?
The GI50 was 2.61 µM.

And the TGI (SNB-19 CNS)?
The TGI was over 100 µM.

And the GI50 (HCT-116 colon)?
Its GI50 is 0.645 µM.

What about the TGI (HCT-116 colon) of the same compound?
The TGI was over 100 µM.

And the GI50 (SF-295 CNS)?
The GI50 was 4.48 µM.

And the TGI (SF-295 CNS)?
Its TGI is over 100 µM.

And the GI50 (HT29 colon)?
The GI50 was 3.29 µM.

What about the TGI (HT29 colon) of the same compound?
The TGI was over 100 µM.

What about the GI50 (SK-MEL-28 melanoma) of the same compound?
The GI50 was 2.89 µM.

And the TGI (SK-MEL-28 melanoma)?
The TGI was over 100 µM.

What about the GI50 (SF-268 CNS) of the same compound?
Its GI50 is 3 µM.

What about the TGI (SF-268 CNS) of the same compound?
The TGI was 7.84 µM.

And the GI50 (TK-10 renal)?
The GI50 was 2.7 µM.

What about the TGI (TK-10 renal) of the same compound?
Its TGI is over 100 µM.

And the GI50 (A549 NSCLC)?
Its GI50 is 5.18 µM.

What about the TGI (A549 NSCLC) of the same compound?
Its TGI is over 100 µM.

What about the GI50 (MCF7 breast) of the same compound?
Its GI50 is 2.98 µM.

And the TGI (MCF7 breast)?
Its TGI is over 100 µM.

What about the GI50 (OVCAR-4 ovarian) of the same compound?
The GI50 was 3.33 µM.

And the TGI (OVCAR-4 ovarian)?
Its TGI is over 100 µM.

And the GI50 (CAKI-1 renal)?
Its GI50 is 3.99 µM.

What about the TGI (CAKI-1 renal) of the same compound?
Its TGI is over 100 µM.

And the GI50 (MDA-MB-468 breast)?
Its GI50 is 0.274 µM.

And the TGI (MDA-MB-468 breast)?
Its TGI is 0.593 µM.
